# Data: ChEMBL document CHEMBL3627674, “Discovery of wrightiadione as a novel template for the TrkA kinase inhibitors” (Bioorg Med Chem Lett, 2015)
# pIC50: −log10 of the molar value.
# Target: High affinity nerve growth factor receptor (Homo sapiens, UniProt P04629)
# Assay: Inhibition of TrkA (unknown origin) by radiometric analysis in presence of [gamma-33P]-ATP
# High affinity nerve growth factor receptor, sequence (P04629 whole entry): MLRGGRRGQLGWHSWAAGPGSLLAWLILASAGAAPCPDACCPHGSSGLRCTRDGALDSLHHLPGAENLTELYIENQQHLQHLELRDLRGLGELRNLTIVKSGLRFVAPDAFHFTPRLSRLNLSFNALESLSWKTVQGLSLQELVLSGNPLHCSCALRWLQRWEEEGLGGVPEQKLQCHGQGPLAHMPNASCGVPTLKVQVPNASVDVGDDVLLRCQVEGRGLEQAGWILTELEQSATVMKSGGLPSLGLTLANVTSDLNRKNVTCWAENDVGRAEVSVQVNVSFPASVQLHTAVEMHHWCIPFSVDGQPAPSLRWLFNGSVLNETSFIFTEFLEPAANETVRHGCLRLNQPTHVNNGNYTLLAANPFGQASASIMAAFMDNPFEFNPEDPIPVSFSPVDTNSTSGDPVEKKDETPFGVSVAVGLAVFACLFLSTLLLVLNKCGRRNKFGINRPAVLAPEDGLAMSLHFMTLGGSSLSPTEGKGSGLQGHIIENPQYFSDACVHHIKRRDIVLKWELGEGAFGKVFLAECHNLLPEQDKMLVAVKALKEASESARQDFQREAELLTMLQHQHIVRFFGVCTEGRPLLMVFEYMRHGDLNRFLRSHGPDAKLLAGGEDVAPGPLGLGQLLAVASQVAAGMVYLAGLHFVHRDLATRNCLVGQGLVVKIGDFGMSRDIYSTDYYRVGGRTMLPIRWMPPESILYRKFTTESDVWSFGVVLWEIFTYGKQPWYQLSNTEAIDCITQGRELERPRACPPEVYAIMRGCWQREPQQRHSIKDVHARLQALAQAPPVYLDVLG
row,pIC50,Structure (SMILES)
1,3.85,Cn1c2c(c(=O)c3ccccc31)-c1cccc(O)c1C2=O
2,3.68,COc1cccc2c1-c1c(n(C)c3ccccc3c1=O)C2=O
3,4.13,Cc1cccc2c1C(=O)c1c-2c(=O)c2ccccc2n1C
4,4.33,Cc1ccc2c(c1)C(=O)c1c-2c(=O)c2ccccc2n1C

# Continued, molecule first:
row,Structure (SMILES),pIC50
1,CCOC(=O)n1c2c(c(=O)c3ccccc31)-c1ccccc1C2=O,4.78
2,COc1ccc2c(c1)C(=O)c1c-2c(=O)c2ccccc2n1C,5.18
3,COc1ccc2c(c1)C(=O)c1c-2c(=O)c2ccccc2n1Cc1ccccc1,4.79
4,Cn1c2c(c(=O)c3ccccc31)-c1ccccc1C2=O,4.54
5,O=C1c2ccccc2-c2c1n(Cc1ccccc1)c1ccccc1c2=O,4.99
6,Cn1c2c(c(=O)c3ccc(C(F)(F)F)cc31)-c1ccccc1C2=O,3.93
7,COc1ccc2c(c1)-c1c(n(C)c3ccccc3c1=O)C2=O,4.84
8,Cn1c2c(c(=O)c3ccc(Cl)cc31)-c1ccccc1C2=O,4.05

# Target: Serine/threonine-protein kinase PLK3 (Homo sapiens, UniProt Q9H4B4)
# Assay: Inhibition of PLK3 (unknown origin) by radiometric analysis in presence of [gamma-33P]-ATP
# Serine/threonine-protein kinase PLK3, sequence (Q9H4B4 whole entry): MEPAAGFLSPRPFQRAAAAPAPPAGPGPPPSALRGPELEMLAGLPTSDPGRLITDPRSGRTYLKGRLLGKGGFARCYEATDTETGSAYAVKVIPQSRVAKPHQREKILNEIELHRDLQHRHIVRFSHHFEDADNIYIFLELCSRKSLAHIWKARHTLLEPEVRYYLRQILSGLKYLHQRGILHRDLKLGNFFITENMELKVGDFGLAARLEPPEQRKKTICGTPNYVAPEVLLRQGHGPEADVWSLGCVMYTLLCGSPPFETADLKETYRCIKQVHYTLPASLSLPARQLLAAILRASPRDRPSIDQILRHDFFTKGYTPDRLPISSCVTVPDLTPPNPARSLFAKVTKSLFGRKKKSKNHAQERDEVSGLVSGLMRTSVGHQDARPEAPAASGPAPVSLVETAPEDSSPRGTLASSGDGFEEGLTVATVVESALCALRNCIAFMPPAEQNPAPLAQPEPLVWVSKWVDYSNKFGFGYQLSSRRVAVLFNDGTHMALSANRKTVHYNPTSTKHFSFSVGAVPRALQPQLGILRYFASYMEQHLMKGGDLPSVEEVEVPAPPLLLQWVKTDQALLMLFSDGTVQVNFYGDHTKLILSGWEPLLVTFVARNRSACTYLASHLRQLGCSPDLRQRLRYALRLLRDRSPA
row,pIC50,Structure (SMILES)
1,< 3.70,Cn1c2c(c(=O)c3ccccc31)-c1ccccc1C2=O
